Experiments:
[1] = system: Blumeria graminis f. sp. tritici (Erysiphe graminis f. sp. tritici); test: Blumeria graminis f. sp. tritici/Wheat/Leaf Disc Preventative (Powdery Mildew on Wheat); format: in vivo; conditions: foliar, wheat leaf disc preventative, compared to untreated control
Procedure, shortened: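 Wheat cv. Kanzler leaf segments on agar sprayed with formulated compound, inoculated with powdery mildew 1 day later and held at 20° C, 60% rh (24 h dark, then 12 h light/12 h dark). Percent disease control versus untreated scored 6-8 days after application.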

Pythium ultimum = test: Pythium ultimum/Liquid Culture (Seedling Damping Off); format: cell-based; conditions: Globisporangium ultimum, liquid culture, compared to untreated control
Experimental: Mycelia fragments and oospores of a newly grown liquid culture of the fungus are directly mixed into nutrient broth (PDB potato dextrose broth). After placing a (DMSO) solution of test compound into a microtiter plate (96-well format), the nutrient broth containing the fungal mycelia/spore mixture is added.

[2] = system: Monographella nivalis (Microdochium nivale); test: Monographella nivalis (Microdochium nivale)/Liquid Culture (Foot Rot Cereals); format: cell-based; conditions: liquid culture, compared to untreated control
Procedure, shortened: (§1)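 Conidia from cryogenic storage were mixed directly into potato dextrose broth, then added to microtiter wells already holding the test compound dissolved in DMSO. Fungal growth in liquid culture was then assessed.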

[3] = system: Phaeosphaeria nodorum (Septoria nodorum); test: Phaeosphaeria nodorum (Septoria nodorum)/Wheat/Leaf Disc Preventative (Glume Blotch); format: in vivo; conditions: Parastagonospora nodorum, foliar, wheat leaf disc preventative, compared to untreated control
Procedure, shortened: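 Wheat cv. Kanzler leaf discs on agar were sprayed with formulated compound diluted in water and inoculated with P. nodorum spores 2 days later. Discs kept at 20 °C, 75% rh, 12 h light/dark; percent disease control versus untreated scored 5–7 days after application.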

[4] = system: Magnaporthe grisea (Pyricularia oryzae); test: whole plant or invertebrate; format: in vivo; conditions: foliar, read-out: control of Magnaporthe grisea
Plasmopara viticola = test: whole plant or invertebrate; format: in vivo; conditions: foliar, read-out: control of Plasmopara viticola
[5] = system: Mycosphaerella arachidis (Cercospora arachidicola); test: Mycosphaerella arachidis (Cercospora arachidicola)/Liquid Culture (Early Leaf Spot); format: cell-based; conditions: liquid culture, compared to untreated control
Procedure, shortened: as §1

Phakopsora pachyrhizi = test: Phakopsora pachyrhizi/Soybean/Preventative (Soybean Rust); format: in vivo; conditions: foliar, 288 h, 200 ppm, soybean leaf disc preventative, compared to untreated control, read-out: control of Phakopsora pachyrhizi
[6] = system: Glomerella lagenarium (Colletotrichum lagenarium); test: Glomerella lagenarium (Colletotrichum lagenarium)/Liquid Culture (Anthracnose); format: cell-based; conditions: Colletotrichum orbiculare, liquid culture, compared to untreated control
Phytophthora infestans = test: whole plant or invertebrate; format: in vivo; conditions: in Solanum lycopersicum, foliar, read-out: control of Phytophthora infestans
[7] = system: Mycosphaerella graminicola (Septoria tritici); test: Mycosphaerella graminicola (Septoria tritici)/Liquid Culture (Septoria Blotch); format: cell-based; conditions: Zymoseptoria tritici; 20 ppm; liquid culture; compared to untreated control
Procedure, shortened: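 Conidia from cryogenic storage mixed into potato dextrose broth and added to microtiter wells already holding DMSO solutions of test compound. Activity expressed as percentage disease control.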

[8] = system: Puccinia recondita f. sp. tritici; test: Puccinia recondita f. sp. tritici/Wheat/Leaf Disc Curative (Brown Rust); format: in vivo; conditions: foliar, wheat leaf disc curative, compared to untreated control
Procedure, shortened: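 Curative leaf-disc test on wheat cv. Kanzler segments on agar, spore-inoculated and kept dark at 19° C, 75% rh; formulated compound in water applied 1 day after inoculation. Incubated at 19° C, 75% rh, 12 h light/12 h dark; percent disease control versus untreated scored 6-8 days after application.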

[9] = system: Puccinia recondita f. sp. tritici; test: Puccinia recondita f. sp. tritici/Wheat/Leaf Disc Preventative (Brown Rust); format: in vivo; conditions: foliar, 200 ppm, wheat leaf disc preventative, compared to untreated control, read-out: control of Puccinia recondita f. sp. tritici
[10] = system: Botryotinia fuckeliana (Botrytis cinerea); test: Botryotinia fuckeliana (Botrytis cinerea)/Liquid Culture (Gray Mould); format: cell-based; conditions: liquid culture, compared to untreated control
Experimental: Conidia of the fungus from cryogenic storage are directly mixed into nutrient broth (Vogels broth). After placing a (DMSO) solution of test compound into a microtiter plate (96-well format), the nutrient broth containing the fungal spores is added.

Sclerotinia sclerotiorum = test: Sclerotinia sclerotiorum/Liquid Culture (Cottony Rot); format: cell-based; conditions: liquid culture, compared to untreated control
Experimental: Mycelia fragments of a newly grown liquid culture of the fungus are directly mixed into nutrient broth (PDB potato dextrose broth). After placing a (DMSO) solution of test compound into a microtiter plate (96-well format) the nutrient broth containing the fungal material is added.

[11] = system: Thanatephorus cucumeris (Rhizoctonia solani); test: Thanatephorus cucumeris (Rhizoctonia solani)/Liquid Culture (Foot Rot, Damping-Off); format: cell-based; conditions: liquid culture, compared to untreated control
Experimental: Mycelia fragments of a newly grown liquid culture of the fungus are directly mixed into nutrient broth (PDB potato dextrose broth). After placing a (DMSO) solution of the test compounds into a microtiter plate (96-well format), the nutrient broth containing the fungal material is added.

Alternaria solani = test: Alternaria solani/Tomato/Leaf Disc (Early Blight); format: in vivo; conditions: foliar, tomato leaf disc, compared to untreated control
Procedure, shortened: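 Tomato cv. Baby leaf disks on agar were sprayed with diluted formulated compound and inoculated with spores 2 days later. Incubation at 23° C./21° C. day/night, 80% rh, 12/12 h light; percent disease control versus untreated scored 5-7 days after application.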

Pyrenophora teres = test: Pyrenophora teres/Barley/Leaf Disc Preventative (Net Blotch); format: in vivo; conditions: foliar, 200 ppm, barley leaf disc preventative, compared to untreated control, read-out: control of Pyrenophora teres
Procedure, shortened: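 Formulated compound, diluted in water, sprayed onto barley cv. Hasso leaf segments on agar; spore suspension inoculation followed 2 days after application. Results expressed as percentage disease control.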

[12] = Photostability assay (Atlas Suntest); format: physicochemical; conditions: Suntest 750 W/m^2, spotted on microscope slides
Experimental: The testing method to measure the photostability data of each compound in table is D1 is as specifically described below. The objective of the photostability assay was to determine the stability of the individual test compounds in a strictly controlled and reproducible environment allowing a comparison of their photostability.
Method: Compounds were dissolved in methanol (HPLC grade) to give 1 g/L stock solutions. Compound stock solution (2 μl) was spotted onto microscope slides in a 3D printed holder and put into the Atlas Suntest. The spectral output power of the Suntest was set to 750 W/m^2, which is considered typical of the daily maximum (noon) irradiance level on a very bright British Summer day. At specific time points slides were removed from the Suntest and placed in 4D vials. Wash solvent made up of 50:40:10 H2O:MeCN:THF (1 mL) is then added to the vials and whirlimixed. The resulting solution is then subsampled to an HPLC vial to be analysed. A Waters UPLC system with Photodiode Array was used with a Waters reverse phase column (BEH C18, 100×2.1 mm×1.7 μm) and acetonitrile (HPLC grade) acidified water (0.2% formic acid) mobile phase at a flow rate of 0.6 mL/min. Peak detection was at the optimum wavelength and peak areas were used for quantification
Initial and subsequent measurements of peak area attributable to the test compound were used to provide a % parent remaining at 3 hours.

Row | SMILES | pest or weed control at 200 ppm [1] | inhibition of growth at 20 ppm (Pythium ultimum) | inhibition of growth at 20 ppm [2] | pest or weed control at 200 ppm [3] | pest or weed control at 200 ppm [4] | pest or weed control at 200 ppm (Plasmopara viticola) | melting point | inhibition of growth at 20 ppm [5] | pest or weed control at 200 ppm (Phakopsora pachyrhizi) | inhibition of growth at 20 ppm [6] | pest or weed control at 200 ppm (Phytophthora infestans) | inhibition of growth at 20 ppm [7] | pest or weed control at 200 ppm [8] | pest or weed control at 200 ppm [9] | inhibition of growth at 20 ppm [10] | inhibition of growth at 20 ppm (Sclerotinia sclerotiorum) | inhibition of growth at 20 ppm [11] | pest or weed control at 200 ppm (Alternaria solani) | pest or weed control at 200 ppm (Pyrenophora teres) | % Parent Remaining @ 3 hrs [12]
1 | CO/C=C(\Oc1cc(-n2ccc(C(C)C)n2)cc(F)c1C)C(=O)OC [Compound E-7, methyl (Z)-2-[3-fluoro-5-(3-isopropylpyrazol-1-yl)-2-methyl-phenoxy]-3-methoxy-prop-2-enoate] | ≥ 80% | ≥ 80% | ≥ 80% | ≥ 80% | ≥ 80% | ≥ 80% | 114 to 116 °C | ≥ 80% | ≥ 50% | ≥ 80% | ≥ 80% | ≥ 80% | ≥ 80% | ≥ 80% |  |  |  |  |  | 
2 | CO/C=C(\Oc1cc(-n2ccc(C(C)C(F)(F)F)n2)ccc1C)C(=O)OC (centres unmarked) [Compound E-23, methyl (Z)-3-methoxy-2-[2-methyl-5-[3-(2,2,2-trifluoro-1-methyl-ethyl)pyrazol-1-yl]phenoxy]prop-2-enoate] |  |  | ≥ 80% |  |  | ≥ 80% | 119 to 122 °C | ≥ 80% |  | ≥ 80% | ≥ 80% | ≥ 80% | ≥ 80% | ≥ 80% | ≥ 80% | ≥ 80% | ≥ 80% |  |  | 
3 | C=C(c1ccn(-c2ccc(C)c(O/C(=C\OC)C(=O)OC)c2)n1)C(F)(F)F [Compound E-24, methyl (Z)-3-methoxy-2-[2-methyl-5-[3-[1-(trifluoromethyl)vinyl]pyrazol-1-yl]phenoxy]prop-2-enoate] | ≥ 80% |  | ≥ 80% | ≥ 80% | ≥ 80% | ≥ 80% |  | ≥ 80% |  | ≥ 80% | ≥ 80% | ≥ 80% | ≥ 80% | ≥ 80% | ≥ 80% | ≥ 80% | ≥ 80% |  |  | 
4 | CO/C=C(\Oc1cc(-n2ccc(C3CCCCC3)n2)ccc1C)C(=O)OC [Compound E-36, methyl (Z)-2-[5-(3-cyclohexylpyrazol-1-yl)-2-methyl-phenoxy]-3-methoxy-prop-2-enoate] |  |  | ≥ 80% | ≥ 80% | ≥ 80% | ≥ 80% | 85 to 89 °C | ≥ 80% |  | ≥ 80% | ≥ 80% | ≥ 80% | ≥ 80% | ≥ 80% | ≥ 80% | ≥ 80% | ≥ 80% | ≥ 80% | ≥ 80% | 
5 | CO/C=C(\Oc1cc(-n2ccc(C3(F)CC3)n2)ccc1C)C(=O)OC [Compound E-67, methyl (Z)-2-[5-[3-(1-fluorocyclopropyl)pyrazol-1-yl]-2-methyl-phenoxy]-3-methoxy-prop-2-enoate] | ≥ 80% |  | ≥ 80% | ≥ 80% |  | ≥ 80% | 128 to 131 °C | ≥ 80% |  | ≥ 80% | ≥ 80% | ≥ 80% | ≥ 80% | ≥ 80% |  | ≥ 80% | ≥ 80% | ≥ 80% | ≥ 80% | 37%
6 | CO/C=C(\Oc1cc(-n2ccc(C(F)(F)C(F)(F)F)n2)ccc1C)C(=O)OC [Compound E-69, methyl (Z)-3-methoxy-2-[2-methyl-5-[3-(1,1,2,2,2-pentafluoroethyl)pyrazol-1-yl]phenoxy]prop-2-enoate] | ≥ 80% |  | ≥ 80% |  | ≥ 80% | ≥ 80% | 117 to 120 °C | ≥ 80% |  | ≥ 80% |  | ≥ 80% | ≥ 80% | ≥ 80% |  | ≥ 80% | ≥ 80% |  |  | 
7 | CO/C=C(\Oc1cc(-n2ncc(C3CCCCC3)n2)ccc1C)C(=O)OC [Compound F-7, methyl (Z)-2-[5-(4-cyclohexyltriazol-2-yl)-2-methyl-phenoxy]-3-methoxy-prop-2-enoate] | ≥ 80% |  | ≥ 80% | ≥ 80% | ≥ 80% | ≥ 80% | 120 to 122 °C | ≥ 80% |  | ≥ 80% |  | ≥ 80% | ≥ 80% | ≥ 80% |  | ≥ 80% |  |  | ≥ 80% | 
8 | CO/C=C(\Oc1cccc(-n2ncc(C3CC3)n2)c1)C(=O)OC [Compound F-9, methyl (Z)-2-[3-(4-cyclopropyltriazol-2-yl)phenoxy]-3-methoxy-prop-2-enoate] | ≥ 80% | ≥ 80% | ≥ 80% |  |  | ≥ 80% |  | ≥ 80% |  | ≥ 80% | ≥ 80% | ≥ 80% | ≥ 80% | ≥ 80% |  |  |  |  |  | 

From patent publication US12043600B2, “Microbiocidal compounds” (SYNGENTA CROP PROTECTION AG, priority 2018, dated 2024)
